# Results from patent publication US20250084078A1, “FUSED RING-SUBSTITUTED SIX-MEMBERED HETEROCYCLIC COMPOUND, AND PREPARATION METHOD THEREFOR AND USE THEREOF” (GENFLEFT THERAPEUTICS (SHANGHAI) INC., priority 2022, published 2025).
# Molecular target: HPK1 (Homo sapiens, UniProt Q92918)
# Assay: SLP76 phosphorylation assay (intracellular HPK1 inhibitory activity, p-SLP76 S376 ELISA in Jurkat cells)
# Settings: p-SLP76 IC50, Jurkat, Clone E6-1 cells; 1 h compound pre-incubation; anti-CD3 beads stimulation 20 min; Phospho-SLP-76 (Ser376) ELISA
# Method: SLP76 Phosphorylation Assay
# Intracellular HPK1 inhibitory activity was tested by the detection of SLP76 phosphorylation at S376.
# Preparation of 1000× drug stock plate: a 1000× compound stock plate was prepared. […] The compound stock plate was sealed with a sealing film and stored in a −20° C. refrigerator for later use.
# Preparation of Beads wash buffer: 0.1 mL FBS and 0.4 mL 0.5 M EDTA (with a final concentration of 2 mM) were added to 100 mL PBS and stored in a 4° C. refrigerator for later use.
# 100× Protease Inhibitor Cocktail in 1/20 total volume was added and stored on wet ice for later use. The buffer was ready to use.
# Cell inoculation and dosing: the 1000× drug stock plate was taken and melted at room temperature in the dark. […] Jurkat cells in the logarithmic growth phase were selected and collected. […] The cells were inoculated into a 96-well plate (the volume was 90 μL per well), and a blank control well (without cells inoculation, and in which 110 μL of medium was added) was set. 10 μL of a drug-containing culture medium (10×) was transferred from the 10× drug intermediate plate into the 96-well cell plate (with a final concentration of 0.1% DMSO), and set a DMSO control group (in which 0.1% DMSO was added to the treated cells), a stimulated control group (in which 10 μL of culture medium was added to treat cells) and an unstimulated group (in which 10 μL of culture medium was added to treat cells). The wells were duplicated, gently patted, mixed, and then placed into a 5% CO2 incubator at 37° C. for 1 h.
# Anti-CD3 beads stimulation: Dynabeads anti-human CD3 was taken, shaken, and mixed for 60 s. The required volume of beads was pipetted, and an equal volume or at least 1 mL of washing solution was added to wash once. Fresh complete medium was then added to resuspend and adjust the density of the beads to 4×10^7/mL, and the beads were placed on ice for later use. At the end of drug pre-incubation, the cell culture plate was taken out. 10 μL Dynabeads anti-human CD3 was added to each well to treat the cells, and 10 μL the culture medium was added to the unstimulated group. The cell culture plate was shaken to mix well at 2500 rpm for 10 s, and then placed into a 5% CO2 incubator at 37° C. and continued to culture for 20 min.
# Detection of p-SLP76 protein level: PathScan Phospho-SLP-76 (Ser376) Sandwich ELISA Kit was applied to detect p-SLP76 protein level. At the end of the Anti-CD3 beads stimulation, the cell culture plate was removed from the incubator. […] After lysis, the cell culture plate was centrifuged at 4° C., 400×g for 5 min. 25 μL of sample and 75 μL of sample diluent were added to each well, and the plate was placed in a 5% CO2 incubator at 37° C. for 2 h. The subsequent detection steps were carried out following the kit instructions, and the absorbance (OD value) of each well was read at 450 nm by a microplate reader.
# Sequence of HPK1 (Q92918 whole entry): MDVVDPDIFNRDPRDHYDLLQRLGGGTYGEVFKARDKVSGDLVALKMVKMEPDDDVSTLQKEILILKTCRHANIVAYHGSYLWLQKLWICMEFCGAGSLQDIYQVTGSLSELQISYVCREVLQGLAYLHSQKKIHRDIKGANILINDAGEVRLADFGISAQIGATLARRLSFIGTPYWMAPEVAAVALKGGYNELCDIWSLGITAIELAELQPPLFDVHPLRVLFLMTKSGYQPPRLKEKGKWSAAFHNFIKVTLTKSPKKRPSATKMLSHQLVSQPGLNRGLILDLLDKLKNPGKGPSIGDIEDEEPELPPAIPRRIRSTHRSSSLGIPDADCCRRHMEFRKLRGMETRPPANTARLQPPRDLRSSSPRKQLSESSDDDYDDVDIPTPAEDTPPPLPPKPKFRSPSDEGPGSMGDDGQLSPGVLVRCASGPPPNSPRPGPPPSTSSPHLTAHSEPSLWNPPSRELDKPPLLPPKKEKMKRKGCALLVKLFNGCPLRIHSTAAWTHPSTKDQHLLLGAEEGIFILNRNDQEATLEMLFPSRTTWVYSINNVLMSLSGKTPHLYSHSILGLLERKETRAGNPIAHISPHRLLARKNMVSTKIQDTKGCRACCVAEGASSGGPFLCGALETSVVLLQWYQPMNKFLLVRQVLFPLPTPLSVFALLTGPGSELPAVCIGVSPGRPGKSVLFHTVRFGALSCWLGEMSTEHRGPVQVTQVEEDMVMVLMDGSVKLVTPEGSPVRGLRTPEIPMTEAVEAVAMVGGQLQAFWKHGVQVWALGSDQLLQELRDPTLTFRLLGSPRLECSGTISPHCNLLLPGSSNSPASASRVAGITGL
row,Structure (SMILES),IC50
1,Cc1c[nH]c2ncc(-c3cc4c(c([C@@H]5COCCN5)c3)CN(C(=O)N3CC5CCC(C3)N5C)CC4)cc12 [Compound Z462],255 nM
2,"C[C@@H]1CN(C(=O)N2CCc3cc(-c4cnc5[nH]cc(Cl)c5c4)cc([C@@H]4COCCN4)c3C2)CCO1 [Compound Z502, (6-(3-chloro-1H-pyrrolo[2,3-b]pyridin-5-yl)-8-((R)-morpholin-3-yl)-3,4-dihydroisoquinolin-2(1H)-yl)((R)-2-methylmorpholino)methanone]",169 nM
3,"Cc1c[nH]c2ncc(-c3cc4c(c([C@@H]5COCCN5)c3)CN(C3CCOCC3)CC4)cc12 [Compound Z454, (R)-3-(6-(3-methyl-1H-pyrrolo[2,3-b]pyridin-5-yl)-2-(tetrahydro-2H-pyran-4-yl)-1,2,3,4-tetrahydroisoquinolin-8-yl)morpholine]",655 nM
4,"O=C(N1CCc2cc(-c3cnc4[nH]cc(Cl)c4c3)cc([C@@H]3COCCN3)c2C1)C1(O)CC1 [Compound Z435, (R)-(6-(3-chloro-1H-pyrrolo[2,3-b]pyridin-5-yl)-8-(morpholin-3-yl)-3,4-dihydroisoquinolin-2(1H)-yl)(1-hydroxycyclopropyl)methanone]",258 nM
5,"Cc1c(Cl)[nH]c2ncc(-c3cc4c(c([C@@H]5COCCN5)c3)CN(C(=O)C(C)(C)O)CC4)cc12 [Compound Z481, (R)-1-(6-(2-chloro-3-methyl-1H-pyrrolo[2,3-b]pyridin-5-yl)-8-(morpholin-3-yl)-3,4-tetrahydroisoquinolin-2(1H)-yl)-2-hydroxy-2-methylpropan-1-one]",443 nM
6,"Cc1c[nH]c2ncc(-c3cc4c(c([C@@H]5COCCN5)c3)CN(C(=O)N3C(C)COCC3C)CC4)cc12 (stereo partly drawn) [Compound Z460, (3,5-dimethylmorpholine)(6-(methyl-methyl-1H-pyrrolo[2,3-b]pyridin-5-yl)-8-((R)-morpholin-3-yl)-3,4-dihydroisoquinolin-2(1H)-yl)methanone]",177 nM
7,"COC1CN(C(=O)N2CCc3cc(-c4cnc5[nH]cc(C)c5c4)cc([C@@H]4COCCN4)c3C2)C(C)(C)C1 (stereo partly drawn) [Compound Z461, (4-methoxy-2,2-dimethylpyrrolidin-1-yl)(6-(3-methyl-1H-pyrrolo[2,3-b]pyridin-5-yl)-8-((R)-morpholin-3-yl)-3,4-dihydroisoquinolin-2(1H)-yl)methanone]",195 nM
8,"COCC(=O)N1CCc2cc(-c3cnc4[nH]cc(Cl)c4c3)cc([C@@H]3COCCN3)c2C1 [Compound Z466, (R)-1-[6-(3-chloro-1H-pyrrolo[2,3-b]pyridin-5-yl)-8-morpholin-3-yl-3,4-dihydroisoquinolin-2(1H)-yl]-2-methoxyethan-1-one]",306 nM
9,"Cc1c[nH]c2ncc(-c3cc4c(c([C@@H]5COCCN5)c3)CN(C(=O)N3CCO[C@@H](C)C3)CC4)cc12 [Compound Z452, (6-(3-methyl-1H-pyrrolo[2,3-b]pyridin-5-yl)-8-((R)-morpholin-3-yl)-3,4-dihydroisoquinolin-2(1H)-yl)((S)-2-methylmorpholine)methanone]",238 nM
10,"O=C(C1CCOCC1)N1CCc2c(cc(-c3cnc4[nH]cc(Cl)c4c3)cc2[C@@H]2COCCN2)C1 [Compound Z487, (R)-(7-(3-chloro-1H-pyrrolo[2,3-b]pyridin-5-yl)-5-(morpholin-3-yl)-3,4-dihydroisoquinolin-2(1H)-yl)(tetrahydro-2H-pyran-4-yl)methanone]",153 nM
11,"O=S(=O)(C1CC1)N1CCc2cc(-c3cnc4[nH]cc(Cl)c4c3)cc([C@@H]3COCCN3)c2C1 [Compound Z499, (R)-3-(6-(3-chloro-1H-pyrrolo[2,3-b]pyridin-5-yl)-2-(cyclopropylsulfonyl)-1,2,3,4-tetrahydroisoquinolin-8-yl)morpholine]",219 nM
12,"CS(=O)(=O)N1CCc2cc(-c3cnc4[nH]cc(Cl)c4c3)cc([C@@H]3COCCN3)c2C1 [Compound Z501, (R)-3-(6-(3-chloro-1H-pyrrolo[2,3-b]pyridin-5-yl)-2-(methylsulfonyl)-1,2,3,4-tetrahydroisoquinolin-8-yl)morpholine]",285 nM
13,"Cc1c[nH]c2ncc(-c3cc4c(c([C@@H]5COCCN5)c3)CN(C(=O)N3CCO[C@H](C)C3)CC4)cc12 [Compound Z484, (6-(3-methyl-1H-pyrrolo[2,3-b]pyridin-5-yl)-8-((R)-morpholin-3-yl)-3,4-dihydroisoquinolin-2(1H)-yl)((R)-2-methylmorpholino)methanone]",364 nM

# Now from value to molecule:
row,IC50,Structure (SMILES)
1,168 nM,"CC1(C)COCCN1C(=O)N1CCc2cc(-c3cnc4[nH]cc(Cl)c4c3)cc([C@@H]3COCCN3)c2C1 [Compound Z503, (R)-(6-(3-chloro-1H-pyrrolo[2,3-b]pyridin-5-yl)-8-(morpholin-3-yl)-3,4-dihydroisoquinolin-2(1H)-yl)(3,3-dimethylmorpholino)methanone]"
2,125 nM,"CCc1c[nH]c2ncc(-c3cc4c(c([C@@H]5COCCN5)c3)CN(C(=O)c3cnc(C)nc3)CC4)cc12 [Compound Z567, (R)-(6-(3-ethyl-1H-pyrrolo[2,3-b]pyridin-5-yl)-8-(morpholin-3-yl)-3,4-dihydroisoquinolin-2(1H)-yl)(2-methylpyrimidin-5-yl)methanone]"
3,163 nM,"Cc1cccnc1C#Cc1c[nH]c2ncc(-c3cc4c(c([C@@H]5COCCN5)c3)CN(C(=O)C(C)(C)O)CC4)cc12 [Compound Z578, (R)-2-hydroxy-2-methyl-1-(6-(3-50 ((3-methylpyridin-2-yl)ethynyl)-1H-pyrrolo[2,3-b]pyridin-5-yl)-8-(morpholin-3-yl)-3,4-dihydroisoquinolin-2(1H)-yl)propan-1-one]"
4,134 nM,"CCc1c(Cl)[nH]c2ncc(-c3cc4c(c([C@@H]5COCCN5)c3)CN(C(=O)N3CC5CCC(C3)O5)CC4)cc12 [Compound Z514, (8-oxo-3-azabicyclo[3.2.1]octane-3-yl)(6-(2-chloro-3-ethyl-1H-pyrrolo[2,3-b]pyridin-5-yl)-8-((R)-morpholin-3-yl)-3,4-dihydroisoquinolin-2(1H)-yl)methanone]"
5,215 nM,COc1c[nH]c2ncc(-c3cc4c(c([C@@H]5COCCN5)c3)CN(C(=O)N3CC5CCC(C3)O5)CC4)cc12 [Compound Z592]
6,174 nM,"Cc1c[nH]c2ncc(-c3cc4c(c([C@@H]5COCCN5)c3)CN(C(=O)N3CC5(CCOCC5)C3)CC4)cc12 [Compound Z563, (R)-(6-(3-methyl-1H-pyrrolo[2,3-b]pyridin-5-yl)-8-(morpholin-3-yl)-3,4-dihydroisoquinolin-2(1H)-yl)(7-oxa-2-azaspiro[3.5]nonan-2-yl)methanone]"
7,164 nM,"O=C(N1CCOCC1)N1CCc2cc(-c3cnc4[nH]cc(Cl)c4n3)cc([C@@H]3COCCN3)c2C1 [Compound Z527, (R)-(6-(7-chloro-5H-pyrrolo[2,3-b]pyrazin-2-yl)-8-(morpholin-3-yl)-3,4-dihydroisoquinolin-2(1H)-yl)(morpholino)methanone]"
8,2670 nM,"N#Cc1c[nH]c2ncc(-c3cc4c(c([C@@H]5COCCN5)c3)CN(C(=O)N3C5CCC3COC5)CC4)nc12 [Compound Z583, 2-(2-(3-oxa-8-azabicyclo[3.2.1]octane-8-carbonyl)-8-((R)-morpholin-3-yl)-1,2,3,4-tetrahydroisoquinolin-6-yl)-5H-pyrrolo[2,3-b]pyrazine-7-carbonitrile]"
9,188 nM,"COc1c[nH]c2ncc(-c3cc4c(c([C@@H]5COCCN5)c3)CN(C(=O)C(C)(C)O)CC4)cc12 [Compound Z576, (R)-2-hydroxy-1-(6-(3-methoxy-1H-pyrrolo[2,3-b]pyridin-5-yl)-8-(morpholin-3-yl)-3,4-dihydroisoquinolin-2(1H)-yl)-2-methylpropan-1-one]"
10,825 nM,"C#Cc1c[nH]c2ncc(-c3cc4c(c([C@@H]5COCCN5)c3)CN(C(=O)C(C)(C)O)CC4)cc12 [Compound Z594, (R)-1-(6-(3-ethynyl-1H-pyrrolo[2,3-b]pyridin-5-yl)-8-(morpholin-3-yl)-3,4-dihydroisoquinolin-2(1H)-yl)-2-hydroxy-2-methylpropan-1-one]"
11,117 nM,"O=C(N1CCc2cc(-c3cnc4[nH]cc(Cl)c4n3)cc([C@@H]3COCCN3)c2C1)N1CC2CCC1CO2 (stereo partly drawn) [Compound Z550, (2-oxa-5-azabicyclo[2.2.2]octan-5-yl)(6-(7-chloro-5H-pyrrolo[2,3-b]pyrazin-2-yl)-8-((R)-morpholin-3-yl)-3,4-dihydroisoquinolin-2(1H)-yl)methanone]"
12,276 nM,"Cc1c[nH]c2ncc(-c3cc4c(c([C@@H]5COCCN5)c3)CN(C(=O)N3CC5(COC5)C3)CC4)cc12 [Compound Z579, (R)-(6-(3-methyl-1H-pyrrolo[2,3-b]pyridin-5-yl)-8-(morpholin-3-yl)-3,4-dihydroisoquinolin-2(1H)-yl)(2-oxa-6-oxaspiro[3.3]heptan-6-yl)methanone]"
13,127 nM,"O=C(N1CCc2cc(-c3cnc4[nH]cc(C(F)(F)F)c4n3)cc([C@@H]3COCCN3)c2C1)N1C2CCC1COC2 [Compound Z584, (3-oxa-8-azabicyclo[3.2.1]octan-8-yl)(8-((R)-morpholin-3-yl)-6-(7-(trifluoromethyl)-5H-pyrrolo[2,3-b]pyrazin-2-yl)-3,4-dihydroisoquinolin-2(1H)-yl)methanone]"
14,936 nM,"Cc1c[nH]c2ncc(-c3cc4c(c([C@@H]5COCCN5)c3)CN(C(=O)N3CCC(O)C3)CC4)cc12 (stereo partly drawn) [Compound Z558, (3-hydroxypyrrolidin-1-yl)(6-(3-methyl-1H-pyrrolo[2,3-b]pyridin-5-yl)-8-((R)-morpholin-3-yl)-3,4-dihydroisoquinolin-2(1H)-yl)methanone]"
15,498 nM,"Cc1c[nH]c2ncc(-c3cc4c(c([C@@H]5COCCN5)c3)CN(C(=O)N3CC5CCC(C3)C5O)CC4)cc12 (stereo partly drawn) [Compound Z551, (8-hydroxy-3-azabicyclo[3.2.1]octan-3-yl)(6-(3-methyl-1H-pyrrolo[2,3-b]pyridin-5-yl)-8-((R)-morpholin-3-yl)-3,4-dihydroisoquinolin-2(1H)-yl)methanone]"
16,962 nM,"Cc1c[nH]c2ncc(-c3cc4c(c([C@@H]5COCCN5)c3)CN(C(=O)N3CCC(O)CC3)CC4)cc12 [Compound Z556, (R)-(4-hydroxypiperidin-1-yl)(6-(3-methyl-1H-pyrrolo[2,3-b]pyridin-5-yl)-8-(morpholin-3-yl)-3,4-dihydroisoquinolin-2(1H)-yl)methanone]"
